Test system: LS-180 target cells
Assay: PMN-ADCC target cell lysis assay (⁵¹Cr release)
Format: cell-based, human
Conditions: for % Cytotoxicity: PMNs pretreated 30 min, E:T 100:1, 3 h ADCC assay; for % Cytotoxicity / augmentation of PMN-mediated IgG₃ ADCC: antibody NR-CO-04; for augmentation of PMN-mediated IgG₃ ADCC: activator pretreatment of PMNs, summary of Table 2
Protocol: Peripheral blood polymorphonuclear leukocytes (PMNs) were obtained from healthy normal human donors. Blood (150 cc) was withdrawn by venipuncture in heparinized tubes and mixed with an equal volume of 3% dextran in phosphate-buffered saline (PBS). After sedimentation at 1 x g for 10 min at room temperature, the leukocyte-rich plasma was layered on top of lymphocyte separation medium (LSM, Organon Technica, Durham, NC). PMNs were purified by treating the PMNs and red blood cell (RBC) pellet with RBC lysing solution (0.800% w/v NH₄Cl, 0.1% w/v KHCO₃, 37.0 mg tetrasodium EDTA in 100 ml water at pH 7.3). After incubating approximately 5 min at room temperature, the volume was increased 3X with PBS and the cells washed twice by centrifugation. After resuspension of the cells in RPMI-5% FCS, the PMNs were used in cytotoxicity assays or were incubated with response modifiers.
An appropriate number of target cells were labeled with 200 µCi ⁵¹Cr (⁵¹Cr-Na₂CrO₃; New England Nuclear, Boston, MA) for 2 h at 37°C, with gentle mixing every 15-30 min. The labeled cells were washed three times with 15 ml RPMI followed by centrifugation at 250 x g for 5 min at room temperature. The final pellet was resuspended in RPMI containing 5% FCS, counted, and diluted to an appropriate concentration.
In a typical assay, effector PMNs at different effector:target ratios were added to wells of a microtiter plate (Falcon Plastics, Oxnard, CA), except for those wells to be used for determination of total and spontaneous release of ⁵¹Cr from target cells. For GM-CSF augmentation, PMNs were generally treated within the microtiter plates by the addition of the lymphokine. The effector cells were either washed before the addition of antibody and target cells, or were left in the presence of lymphokine during the ADCC assay.
NR-CO-04 antibody was added to appropriate wells at a concentration of 1 µg/well (4 µg/ml), and the microtiter plate was then incubated at 37°C for 3 h. […]
Wells used for determination of spontaneous ⁵¹Cr release received labeled target cells alone in 200 µl of RPMI-5% FCS; the wells used for determination of total ⁵¹Cr release received labeled target cells and 200 µl 1.0% NP-40.
After […] incubation, the microtiter plate was centrifuged at 250 x g for 5 min at room temperature, and 125 µl of supernatant was transferred from each well into a separate 12 x 75 mm glass tube. Each tube was then assayed for ⁵¹Cr release with a Beckman 5000 gamma counter.
PMN-ADCC assays were performed in triplicate, according to the procedure described in Example I.E., supra. The % lysis (or percent specific release) is indicative of the level of ADCC of target cells. Test release is the amount of release in wells containing effector cells and target cells.

Compound | % Cytotoxicity (10⁻⁷ M) [%] | % Cytotoxicity (10⁻⁸ M) [%] | % Cytotoxicity (10⁻⁹ M) [%] | augmentation of PMN-mediated IgG₃ ADCC | % Cytotoxicity (concentration not given) [%] | GM-CSF augmentation of PMN-ADCC (dose-dependent, 1 to 100 μM retinal, summary of Table 4) | low level of PMN-ADCC observed in the absence of GM-CSF stimulation (dose-dependent, summary of Table 4)
fMET-Leu-Phe peptide [fMLP] | 16.2 ± 0.8 | 23.7 ± 1.2 | 15.6 ± 0.8 | less effective than GM-CSF | – | – | –
CCCCCCCCCCCCCC(=O)O[C@@H]1[C@@H](C)[C@@]2(O)[C@@H](C=C(CO)C[C@]3(O)C(=O)C(C)=C[C@@H]23)[C@@H]2C(C)(C)[C@]12OC(C)=O [PMA, phorbol myristate acetate] | – | – | – | less effective than GM-CSF | 18.8 ± 0.6 | – | –
CC1=C(/C=C/C(C)=C/C=C/C(C)=C/C=O)C(C)(C)CCC1 [Retinal] | – | – | – | – | – | abrogated | further depressed

Reference: patent publication EP0302435A1, “Method for augmenting antibody-dependent cellular cytotoxicity” (NEORX CORPORATION, priority 1987, dated 1989)
